The source of these data is patent US6316413A (Fournier Industrie et Sante, priority 1996, dated 2001).

In assay [1] the target is T1, human B2 receptor cloned and transfected in a stable manner into a CHO cell line (Homo sapiens, UniProt P30411).
T1 construct: expressed in transfected cells
T1 sequence (P30411 1-391): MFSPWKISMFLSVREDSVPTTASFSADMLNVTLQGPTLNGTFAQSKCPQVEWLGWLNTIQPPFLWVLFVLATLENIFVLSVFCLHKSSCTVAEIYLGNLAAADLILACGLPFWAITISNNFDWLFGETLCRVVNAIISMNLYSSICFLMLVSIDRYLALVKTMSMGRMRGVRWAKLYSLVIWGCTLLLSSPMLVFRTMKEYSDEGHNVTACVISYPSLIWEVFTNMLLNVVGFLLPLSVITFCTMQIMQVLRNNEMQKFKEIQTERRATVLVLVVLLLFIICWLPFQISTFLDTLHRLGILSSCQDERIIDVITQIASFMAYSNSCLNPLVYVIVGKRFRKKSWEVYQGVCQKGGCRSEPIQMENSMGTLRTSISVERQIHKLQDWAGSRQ
The assay is described as follows: Binding to the cloned human bradykinin B2 receptor (CHO cell line). The settings on record: affinity for cloned human B2 receptor stably transfected into CHO cells.

The target of assay [2] is T2, bradykinin B2 receptor (segments of human umbilical vein) (Homo sapiens, UniProt P30411).
T2 construct: determination of a pD2 value on segments of human umbilical vein; from tissue; host or cells: segments of human umbilical vein
T2 sequence (P30411 1-391): T1 sequence (P30411 1-391)
The assay is described as follows: B2 receptor-dependent contraction of human umbilical vein segments. The settings on record: calculated from concentrations causing B2 receptor-dependent contraction of human umbilical vein; read-out: pD2 (converted). Type of assay: cell-based.

What is called Ki is a measure of affinity in units of concentration, obtained from inhibition or displacement. The compound `N=C(N)NCCC[C@@H](N)C(=O)N[C@@H](CCCNC(=N)N)C(=O)N1CCC[C@H]1C(=O)N1C[C@H](O)C[C@H]1C(=O)NCC(=O)N[C@@H](Cc1cccs1)C(=O)N[C@@H](CO)C(=O)N[C@@H]1CSc2ccccc2N(CC(=O)N[C@@H](CCCNC(=N)N)C(=O)O)C1=O` [Ex. 1, H-D-Arg-Arg-Pro-4Hyp-Gly-Thi-Ser-DBT(H)-Arg-OH] gave an inhibition constant (Ki) in assay [1] of 0.7 nM. The EC50 in assay [2] is 200 nM. Consider `N=C(N)NCCC[C@H](NC(=O)CN1C(=O)[C@H](NC(=O)[C@H](CO)NC(=O)[C@H](Cc2cccs2)NC(=O)CNC(=O)[C@@H]2C[C@@H](O)CN2C(=O)[C@@H]2CCCN2C(=O)[C@H](CCCNC(=N)N)NC(=O)[C@@H](N)CCCCN)CSc2ccccc21)C(=O)O` [Ex. 2, H-Lys-Arg-Pro-4Hyp-Gly-Thi-Ser-DBT(H)-Arg-OH], for which, in assay [1], the Ki came out at 0.07 nM. Besides, the EC50 in assay [2] was 79.4 nM. Consider `N=C(N)NCCC[C@H](NC(=O)CN1C(=O)[C@H](NC(=O)[C@H](CO)NC(=O)[C@H](Cc2ccccc2)NC(=O)CNC(=O)[C@@H]2CCCN2C(=O)[C@@H]2CCCN2C(=O)[C@@H](N)CCCNC(=N)N)CSc2ccccc21)C(=O)O` [Ex. 3, H-Arg-Pro-Pro-Gly-Phe-Ser-DBT(M)-Arg-OH], for which the inhibition constant Ki in assay [1] turned out to be 12.9 nM. Compound `N=C(N)NCCC[C@@H](N)C(=O)N[C@@H](CCCNC(=N)N)C(=O)N1CCC[C@H]1C(=O)N1C[C@H](O)C[C@H]1C(=O)NCC(=O)N[C@@H](Cc1cccs1)C(=O)N[C@@H](CO)C(=O)N[C@@H]1COc2ccccc2N(CC(=O)N[C@@H](CCCNC(=N)N)C(=O)O)C1=O` [Ex. 4, H-D-Arg-Arg-Pro-4Hyp-Gly-Thi-Ser-DBO(H)-Arg-OH] returned a Ki in assay [1] of 2.5 nM. For the same compound, the EC50 in assay [2] was 7940 nM. On the same counts, the results for `Cc1ccc2c(c1)SC[C@@H](NC(=O)[C@H](CO)NC(=O)[C@H](Cc1cccs1)NC(=O)CNC(=O)[C@@H]1C[C@@H](O)CN1C(=O)[C@@H]1CCCN1C(=O)[C@H](CCCNC(=N)N)NC(=O)[C@H](N)CCCNC(=N)N)C(=O)N2CC(=O)N[C@@H](CCCNC(=N)N)C(=O)O` [Ex. 5, H-D-Arg-Arg-Pro-4Hyp-Gly-Thi-Ser-DBT(CH3)-Arg-OH] are 6 nM and 56.2 nM.
